Measurements taken from PubChem BioAssay AID1919002 (Molecular Pharmacology Branch, DTP, NCI, 2023).

System: 743489-274-T-PDC complex spheroid growth
Experiment: Anticancer human tumor 743489-274-T-PDC patient-derived renal cell carcinoma cell line growth inhibition [AhR]
Conditions: for IC50: curve of first compound; for viability, T/C: stronger effect = lower value
Procedure, shortened: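 Complex tumor spheroids co-cultured with HUVEC and human MSC stroma; AhR antagonists tested in combination with standard-of-care and investigational agents. Top concentration at or near clinical Cmax (else 10 microM), half-log dilutions; growth expressed as percent test/control.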

[1] = second compound 0.1 µM, first compound 0.0316 µM
[2] = second compound 0.1 µM, first compound 0.1 µM
[3] = second compound 0.1 µM, first compound 0.316 µM
[4] = second compound 0.1 µM, first compound 1 µM
[5] = second compound 0.1 µM, first compound 3.16 µM
[6] = second compound 0.1 µM, first compound 10 µM
[7] = second compound 0.316 µM, first compound 0.0316 µM
[8] = second compound 0.316 µM, first compound 0.1 µM
[9] = second compound 0.316 µM, first compound 0.316 µM
[10] = second compound 0.316 µM, first compound 1 µM
[11] = second compound 0.316 µM, first compound 3.16 µM
[12] = second compound 0.316 µM, first compound 10 µM
[13] = second compound 1 µM, first compound 0.0316 µM
[14] = second compound 1 µM, first compound 0.1 µM
[15] = second compound 1 µM, first compound 0.316 µM
[16] = second compound 1 µM, first compound 1 µM
[17] = second compound 1 µM, first compound 3.16 µM
[18] = second compound 1 µM, first compound 10 µM
[19] = second compound 3.16 µM, first compound 0.0316 µM
[20] = second compound 3.16 µM, first compound 0.1 µM
[21] = second compound 3.16 µM, first compound 0.316 µM
[22] = second compound 3.16 µM, first compound 1 µM
[23] = second compound 3.16 µM, first compound 3.16 µM
[24] = second compound 3.16 µM, first compound 10 µM
[25] = second compound 10 µM, first compound 0.0316 µM
[26] = second compound 10 µM, first compound 0.1 µM
[27] = second compound 10 µM, first compound 0.316 µM
[28] = second compound 10 µM, first compound 1 µM
[29] = second compound 10 µM, first compound 3.16 µM
[30] = second compound 10 µM, first compound 10 µM
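Further: spheroids exposed to agents for 7 days before readout.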
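Wherever viability, T/C is given: 100% = DMSO vehicle control wells.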

| Compound | IC50 (second compound 0.1 µM) [µM] | IC50 (second compound 0.316 µM) [µM] | IC50 (second compound 1 µM) [µM] | IC50 (second compound 3.16 µM) [µM] | IC50 (second compound 10 µM) [µM] | viability, T/C [1] [%] | viability, T/C [2] [%] | viability, T/C [3] [%] | viability, T/C [4] [%] | viability, T/C [7] [%] | viability, T/C [8] [%] | viability, T/C [9] [%] | viability, T/C [10] [%] | viability, T/C [13] [%] | viability, T/C [14] [%] | viability, T/C [15] [%] | viability, T/C [16] [%] | viability, T/C [19] [%] | viability, T/C [20] [%] | viability, T/C [21] [%] | other results |
| --- | --- | --- | --- | --- | --- | --- | --- | --- | --- | --- | --- | --- | --- | --- | --- | --- | --- | --- | --- | --- | --- |
| NS(=O)(=O)OCC1CC(n2ccc3c(NC4CCc5ccccc54)ncnc32)CC1O (stereo not given) + Cc1ccccc1N=Nc1ccc(NC(=O)c2ccnn2C)c(C)c1 | > 10 | > 10 | > 10 | > 10 | > 10 | 103 | 110 | 116 | 146 | 109 | 95.8 | 112 | 144 | 98.1 | 104 | 102 | 144 | 105 | 90.8 | 112 | viability, T/C [5]: 162%; viability, T/C [6]: 140%; viability, T/C [11]: 137%; viability, T/C [12]: 155%; viability, T/C [17]: 146%; viability, T/C [18]: 141%; viability, T/C [22]: 128%; viability, T/C [23]: 152%; viability, T/C [24]: 140%; viability, T/C [25]: 96.7%; viability, T/C [26]: 103%; viability, T/C [27]: 116%; viability, T/C [28]: 130%; viability, T/C [29]: 121%; viability, T/C [30]: 115% |
| COc1cccc2c1C(=O)c1c(O)c3c(c(O)c1C2=O)CC(O)(C(=O)CO)CC3OC1CC(N)C(O)C(C)O1 (stereo not given) + Cc1ccccc1N=Nc1ccc(NC(=O)c2ccnn2C)c(C)c1 | 5.54 | 5.43 | 9.11 | 8.62 | 4.79 | 102 | 97.3 | 114 | 102 | 107 | 96.8 | 99.7 | 105 | 96 | 101 | 98.6 | 95.2 | 90 | 88.8 | 105 | viability, T/C [5]: 73.3%; viability, T/C [6]: 25.6%; viability, T/C [11]: 81.4%; viability, T/C [12]: 14.5%; viability, T/C [17]: 80.4%; viability, T/C [18]: 47.3%; viability, T/C [22]: 96%; viability, T/C [23]: 87.3%; viability, T/C [24]: 44.3%; viability, T/C [25]: 85.3%; viability, T/C [26]: 82.2%; viability, T/C [27]: 95.1%; viability, T/C [28]: 83.5%; viability, T/C [29]: 71.9%; viability, T/C [30]: 11.7% |
| CC1(C)CCC(CN2CCN(c3ccc(C(=O)NS(=O)(=O)c4ccc(NCC5CCOCC5)c([N+](=O)[O-])c4)c(Oc4cnc5[nH]ccc5c4)c3)CC2)=C(c2ccc(Cl)cc2)C1 + Cc1cncc(-c2nc(NCCc3c[nH]c4ccccc34)c3ncn(C(C)C)c3n2)c1 | > 10 | > 10 | > 10 | > 10 | > 10 | 103 | 105 | 107 | 106 | 98.5 | 110 | 106 | 104 | 99.4 | 108 | 103 | 114 | 116 | 123 | 119 | viability, T/C [5]: 99.5%; viability, T/C [6]: 113%; viability, T/C [11]: 104%; viability, T/C [12]: 123%; viability, T/C [17]: 133%; viability, T/C [18]: 128%; viability, T/C [22]: 135%; viability, T/C [23]: 145%; viability, T/C [24]: 138%; viability, T/C [25]: 106%; viability, T/C [26]: 111%; viability, T/C [27]: 112%; viability, T/C [28]: 133%; viability, T/C [29]: 151%; viability, T/C [30]: 227% |
| O=C(C=Cc1cccc(S(=O)(=O)Nc2ccccc2)c1)NO + Cc1ccccc1N=Nc1ccc(NC(=O)c2ccnn2C)c(C)c1 | 3.11 | 2.29 | 2.14 | 3.28 | 1.24 | 78.6 | 88.4 | 73 | 67.7 | 85.4 | 78.3 | 75.9 | 62.6 | 77.1 | 75.6 | 75.5 | 70.6 | 79.7 | 81.2 | 75.2 | viability, T/C [5]: 49.9%; viability, T/C [6]: 31%; viability, T/C [11]: 44.8%; viability, T/C [12]: 26.9%; viability, T/C [17]: 39.5%; viability, T/C [18]: 25%; viability, T/C [22]: 68.9%; viability, T/C [23]: 50.7%; viability, T/C [24]: 25.8%; viability, T/C [25]: 75.4%; viability, T/C [26]: 76.9%; viability, T/C [27]: 64%; viability, T/C [28]: 56.1%; viability, T/C [29]: 34%; viability, T/C [30]: 27.9% |
| CC1COCCN1c1cc(-c2ccnn2C)c2ccnc(-c3ccn[nH]3)c2n1 (stereo not given) + Cc1cncc(-c2nc(NCCc3c[nH]c4ccccc34)c3ncn(C(C)C)c3n2)c1 | > 1 | > 1 | > 1 | > 1 | > 1 | 113 | 105 | 100 | 84.5 | 109 | 105 | 95.4 | 80.3 | 116 | 99.8 | 102 | 85 | 122 | 113 | 99.4 | viability, T/C (second compound 0.1 µM, first compound 0.00316 µM): 106%; viability, T/C (second compound 0.1 µM, first compound 0.01 µM): 106%; viability, T/C (second compound 0.316 µM, first compound 0.00316 µM): 99.7%; viability, T/C (second compound 0.316 µM, first compound 0.01 µM): 107%; viability, T/C (second compound 1 µM, first compound 0.00316 µM): 108%; viability, T/C (second compound 1 µM, first compound 0.01 µM): 104%; viability, T/C (second compound 3.16 µM, first compound 0.00316 µM): 120%; viability, T/C (second compound 3.16 µM, first compound 0.01 µM): 126%; viability, T/C [22]: 89.1%; viability, T/C (second compound 10 µM, first compound 0.00316 µM): 116%; viability, T/C (second compound 10 µM, first compound 0.01 µM): 148%; viability, T/C [25]: 143%; viability, T/C [26]: 142%; viability, T/C [27]: 124%; viability, T/C [28]: 109% |
